Drawing on US20120094964A1, “SULFAMOYL BENZOIC ACID DERIVATIVES AS TRPM8 ANTAGONISTS” (priority 2009, published 2012), this text covers IC50 for 33 compounds.

Molecules are shown by their SMILES. Some results are limits rather than exact numbers.

Usually IC50 stands for the concentration that gives 50% inhibition. A low value points to greater potency in that assay.

The target of the experiment is T1, human TRPM8 (Homo sapiens, UniProt Q7Z2W7).
T1 construct: expressed in transfected cells
Nature of the experiment: In Vitro human TRPM8 Functional Assay (intracellular Ca2+, Fluo4, FDSS, menthol activation). The experiment is classed as cell-based. As to conditions: HEK293 cells stably expressing human TRPM8; activation with L-(-)-Menthol; 11-point dose-response. As to the method: In Vitro human TRPM8 Functional Assay
The functional activity of compounds was determined by measuring changes in intracellular calcium concentration using a Ca^2+-sensitive fluorescent dye, Fluo4 (Molecular Probes). The changes in fluorescent signal were monitored by the cell imaging technology by Hamamatsu Photonics's Functional Drug Screening System (FDSS).
HEK293 cells stably expressing human TRPM8 were grown in T175 flasks, in a 5% CO2 humidified incubator to about 80% confluence. Media composition consisted of Dulbecco's Modified Eagle Medium (high glucose), 10% fetal calf serum (FCS), 100 units/ml Penicillin, 100 microg/ml Streptomycin and 600 microg/ml Geneticine.
1. Plate-out HEK293-TRPM8 cells (40 microL medium containing 30,000 cells per well) into poly-D-lysine coated 384-well plates (BD FALCON) at 24 hours prior to assay.
1. […] 2. […] 3. Place the plate at room temperature in dark for 1 hour. 4. […] 5. Add 20 microL of compound solutions into each well and leave the plate for 5 minutes under the dark at room temperature. 6. Measure activity by FDSS as follows: • Set the assay plate on the stacker of FDSS • Start the detection of fluorescence intensity • After 30 sec, add 20 microL of 90 microM L-(−)-Menthol
IC50 values for compounds of the present invention were determined from 11-point dose-response studies. Curves were generated using the average of duplicate wells for each data point. Finally, the IC50 values are calculated with the best-fit dose curve determined by XLfit (ID Business Solutions Ltd.).

T1 sequence (Q7Z2W7 whole entry): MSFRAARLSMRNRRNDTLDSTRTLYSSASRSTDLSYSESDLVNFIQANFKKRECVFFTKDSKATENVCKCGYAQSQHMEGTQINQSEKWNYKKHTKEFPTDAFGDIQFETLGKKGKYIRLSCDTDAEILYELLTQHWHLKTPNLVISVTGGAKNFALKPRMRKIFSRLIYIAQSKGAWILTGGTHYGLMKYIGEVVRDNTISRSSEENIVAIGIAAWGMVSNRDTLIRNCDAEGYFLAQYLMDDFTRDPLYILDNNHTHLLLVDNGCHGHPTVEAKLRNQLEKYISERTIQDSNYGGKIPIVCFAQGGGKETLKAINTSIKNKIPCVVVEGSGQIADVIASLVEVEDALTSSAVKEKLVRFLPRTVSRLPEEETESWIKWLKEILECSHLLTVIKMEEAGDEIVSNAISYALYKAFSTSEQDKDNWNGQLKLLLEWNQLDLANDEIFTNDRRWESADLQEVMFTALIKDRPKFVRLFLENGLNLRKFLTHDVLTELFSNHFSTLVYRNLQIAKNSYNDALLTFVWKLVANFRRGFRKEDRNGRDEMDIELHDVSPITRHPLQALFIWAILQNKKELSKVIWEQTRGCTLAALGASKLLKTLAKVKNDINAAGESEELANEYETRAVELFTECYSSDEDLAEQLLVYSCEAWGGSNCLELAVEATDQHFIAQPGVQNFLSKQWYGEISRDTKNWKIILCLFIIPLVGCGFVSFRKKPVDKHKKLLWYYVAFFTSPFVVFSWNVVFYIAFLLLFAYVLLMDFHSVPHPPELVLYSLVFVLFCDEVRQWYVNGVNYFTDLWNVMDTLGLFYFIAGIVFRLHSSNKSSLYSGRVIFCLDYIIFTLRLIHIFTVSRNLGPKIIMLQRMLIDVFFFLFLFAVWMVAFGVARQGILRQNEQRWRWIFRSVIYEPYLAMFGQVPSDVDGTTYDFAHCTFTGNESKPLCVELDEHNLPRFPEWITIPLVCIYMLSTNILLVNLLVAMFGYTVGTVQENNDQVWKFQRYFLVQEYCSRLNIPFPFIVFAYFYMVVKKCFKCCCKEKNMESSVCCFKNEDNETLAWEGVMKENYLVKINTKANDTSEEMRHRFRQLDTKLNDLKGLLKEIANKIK

Compound `COc1ccc(N(C(C)c2ccc(Cl)cc2)S(=O)(=O)c2ccccc2)cc1` (stereo not drawn) [Example 87, N-(1-(4-Chlorophenyl)ethyl)-N-(4-methoxyphenyl) benzenesulfonamide] yielded a half-inhibitory concentration (IC50) of 1000 to 10000 nM. On to `COc1ccc(C(C)N(c2ccc(OC)cc2)S(=O)(=O)c2ccc(C)c(Cl)c2)cc1` (stereo not drawn) [Example 137, 3-Chloro-N-(4-methoxyphenyl)-N-(1-(4-methoxy-phenyl)ethyl)-4-methyl benzenesulfonamide], for which the IC50 fell in the range of 10000 to 30000 nM. For `Cc1cc(C(=O)O)ccc1S(=O)(=O)N(Cc1ccccc1)c1ncc(C(F)(F)F)cc1Cl` [Example 145, 4-(N-Benzyl-N-(3-chloro-5-(trifluoromethyl)pyridin-2-yl)sulfamoyl)-3-methylbenzoic acid], the IC50 is below 1000 nM. In turn, `O=C(O)c1ccc(S(=O)(=O)N(CCCc2ccccc2)c2ncc(C(F)(F)F)cc2Cl)cc1` [Example 59, 4-(N-(3-Chloro-5-(trifluoromethyl)pyridin-2-yl)-N-(3-phenylpropyl)sulfamoyl)benzoic acid] registered an IC50 below 1000 nM. Compound `N#Cc1ccc(CN(c2ncc(C(F)(F)F)cc2Cl)S(=O)(=O)c2ccc(C(=O)O)cc2)cc1` [Example 33, 4-(N-(3-Chloro-5-(trifluoromethyl)pyridin-2-yl)-N-(4-cyanobenzyl)sulfamoyl)benzoic acid] had an IC50 below 1000 nM.

In the case of `COc1cccc(C(C)N(c2ccccc2)S(=O)(=O)c2ccc(C)c(F)c2)c1` (stereo not drawn) [Example 101, 3-Fluoro-N-(1-(3-methoxyphenyl)ethyl)-4-methyl-N-phenylbenzene-sulfonamide], the IC50 was in the range of 1000 to 10000 nM.

Turning to `Cc1cc(C)c(S(=O)(=O)N(Cc2ccccc2)c2ccccn2)c(C)c1` [Example 127, N-Benzyl-2,4,6-trimethyl-N-(pyridin-2-yl)benzene-sulfonamide], the IC50 is 1000 to 10000 nM. The compound `O=C(O)c1ccc(S(=O)(=O)N(Cc2ccccc2)c2ccc(C(F)(F)F)cc2Cl)cc1` [Example 56, 4-(N-Benzyl-N-(2-chloro-4-(trifluoromethyl)phenyl)sulfamoyl)benzoic acid] gave an IC50 below 1000 nM. The compound `O=C(O)c1ccc(Cl)c(S(=O)(=O)N(Cc2ccccc2)c2ccccc2Cl)c1` [Example 120, 3-(N-Benzyl-N-(2-chlorophenyl)sulfamoyl)-4-chlorobenzoic acid] yielded an IC50 of 1000 to 10000 nM. On to `COc1ccccc1-c1cnc(N(Cc2ccccc2)S(=O)(=O)c2ccc(C(=O)O)cc2)c(Cl)c1` [Example 185, 4-(N-Benzyl-N-(3-chloro-5-(2-methoxyphenyl)pyridin-2-yl)sulfamoyl)benzoic acid], for which the IC50 is below 1000 nM.

As to `COc1ccc(S(=O)(=O)N(Cc2ccccc2)c2ncc(C(F)(F)F)cc2Cl)cn1` [Example 189, N-Benzyl-N-(3-chloro-5-(trifluoromethyl)pyridin-2-yl)-6-methoxypyridine-3-sulfonamide], the 50% inhibitory concentration (IC50) was below 1000 nM. `O=C(O)c1ccc(S(=O)(=O)N(CC2CCCC2)c2ncc(C(F)(F)F)cc2Cl)cc1` [Example 192, 4-(N-(3-Chloro-5-(trifluoromethyl)pyridin-2-yl)-N-(cyclopentylmethyl)sulfamoyl)benzoic acid]: the IC50 was below 1000 nM. `COc1cccc(N(C(C)c2ccccc2C)S(=O)(=O)c2ccc(C)c(Cl)c2)c1` (stereo not drawn) [Example 95, 3-Chloro-N-(3-methoxy-phenyl)-4-methyl-N-(1-o-tolylethyl)benzene-sulfonamide]: the IC50 fell in the range of 10000 to 30000 nM. In turn, `O=C(O)c1ccc(S(=O)(=O)N(Cc2ccc(-c3ccccc3)cc2)c2ncc(C(F)(F)F)cc2Cl)cc1` [Example 158, 4-(N-([1,1′-Biphenyl]-4-ylmethyl)-N-(3-chloro-5-(trifluoromethyl)pyridin-2-yl)sulfamoyl)benzoic acid] returned an IC50 below 1000 nM. The compound `O=C(O)c1ccc(S(=O)(=O)N(Cc2noc(-c3ccccc3)n2)c2ncc(C(F)(F)F)cc2Cl)cc1` [Example 199, 4-(N-(3-Chloro-5-(trifluoromethyl)pyridin-2-yl)-N-((5-phenyl-1,2,4-oxadiazol-3-yl)methyl)sulfamoyl)benzoic acid] yielded an IC50 below 1000 nM. `O=S(=O)(c1ccc(Cl)cc1)N(Cc1ccccc1)c1ccccn1` [Example 129, N-Benzyl-4-chloro-N-(pyridin-2-yl)benzene-sulfonamide] showed an IC50 of 1000 to 10000 nM.

In the case of `CC(=O)Nc1ccc(S(=O)(=O)N(Cc2ccccc2)c2ccccn2)cc1` [Example 107, N-(4-(N-Benzyl-N-(pyridin-2-yl)sulfamoyl)phenyl)acetamide], the IC50 is 1000 to 10000 nM. `O=C(O)c1ccc(S(=O)(=O)N(Cc2ccsc2)c2ncc(C(F)(F)F)cc2Cl)cc1` [Example 172, 4-(N-(3-Chloro-5-(trifluoromethyl)pyridin-2-yl)-N-(thiophen-3-ylmethyl)sulfamoyl)benzoic acid]: the IC50 is below 1000 nM.

Regarding `O=C(O)c1ccc(S(=O)(=O)N(Cc2ccc(F)c(Cl)c2)c2ncc(Cl)cc2Cl)cc1` [Example 69, 4-(N-(3-Chloro-4-fluorobenzyl)-N-(3,5-dichloropyridin-2-yl)sulfamoyl)benzoic acid], the IC50 was below 1000 nM. In the case of `COc1ccc(N(C(C)c2ccccc2OC)S(=O)(=O)c2ccccc2F)cc1OC` (stereo not drawn) [Example 93, N-(3,4-Dimethoxyphenyl)-2-fluoro-N-(1-(2-methoxy-phenyl)ethyl)benzene-sulfonamide] it was 1000 to 10000 nM; in that of `O=C(O)c1ccc(S(=O)(=O)N(CC2CC2)c2ncc(C(F)(F)F)cc2Cl)cc1` [Example 29, 4-(N-(3-Chloro-5-(trifluoromethyl)pyridin-2-yl)-N-(cyclopropylmethyl)sulfamoyl)benzoic acid], 1000 to 10000 nM; in that of `O=C(O)c1ccc(S(=O)(=O)N(CCOc2ccc(F)cc2)c2ncc(C(F)(F)F)cc2Cl)cc1` [Example 30, 4-(N-(3-Chloro-5-(trifluoromethyl)pyridin-2-yl)-N-(2-(4-fluorophenoxy)ethyl)sulfamoyl)benzoic acid], below 1000 nM. The compound `Cc1cc(Cl)cnc1N(Cc1ccccc1)S(=O)(=O)c1ccc(C(=O)O)cc1` [Example 38, 4-(N-Benzyl-N-(5-chloro-3-methylpyridin-2-yl)sulfamoyl)benzoic acid] returned a half-inhibitory concentration (IC50) below 1000 nM.

Regarding `O=C(O)c1ccc(S(=O)(=O)N(CC2CCC2)c2ncc(C(F)(F)F)cc2Cl)cc1` [Example 171, 4-(N-(3-Chloro-5-(trifluoromethyl)pyridin-2-yl)-N-(cyclobutylmethyl)sulfamoyl)benzoic acid], the 50% inhibitory concentration (IC50) was below 1000 nM.

`O=C(O)c1ccc(S(=O)(=O)N(Cc2ccccc2OC(F)(F)F)c2ncc(C(F)(F)F)cc2Cl)cc1` [Example 51, 4-(N-(3-Chloro-5-(trifluoromethyl)pyridin-2-yl)-N-(2-(trifluoromethoxy)benzyl)sulfamoyl)benzoic acid] displayed an IC50 below 1000 nM. In the case of `Cc1ccc(-c2ccc(CN(c3ncc(C(F)(F)F)cc3Cl)S(=O)(=O)c3ccc(C(=O)O)cc3)cc2)cn1` [Example 163, 4-(N-(3-chloro-5-(trifluoromethyl)pyridin-2-yl)-N-(4-(6-methylpyridin-3-yl)benzyl)sulfamoyl)benzoic acid] it was below 1000 nM; in that of `O=[N+]([O-])c1ccc(S(=O)(=O)N(Cc2ccccc2)c2ccccn2)cc1` [Example 130, N-Benzyl-4-nitro-N-(pyridin-2-yl)benzene-sulfonamide], 1000 to 10000 nM; in that of `O=C(O)c1ccc(S(=O)(=O)N(Cc2cccc(-c3ccccc3)c2)c2ncc(C(F)(F)F)cc2Cl)cc1` [Example 164, 4-(N-[(1,1′-Biphenyl]-3-ylmethyl)-N-(3-chloro-5-(trifluoromethyl)pyridin-2-yl)sulfamoyl)benzoic acid], below 1000 nM. Under `O=C(O)c1ccc(S(=O)(=O)N(CCOc2ccc(F)cc2)c2ncc(Cl)cc2Cl)cc1` [Example 73, 4-(N-(3,5-Dichloropyridin-2-yl)-N-(2-(4-fluorophenoxy)ethyl)sulfamoyl)benzoic acid] stands 10000 to 30000 nM; under `O=C(O)c1ccc(S(=O)(=O)N(Cc2ccc(Cl)cc2)c2ncc(C(F)(F)F)cc2Cl)cc1` [Example 32, 4-(N-(3-Chloro-5-(trifluoromethyl)pyridin-2-yl)-N-(4-chlorobenzyl)sulfamoyl)benzoic acid], below 1000 nM. `O=C(O)c1ccc(S(=O)(=O)N(Cc2ccc(F)c(Cl)c2)c2ncc(C(F)(F)F)cc2Cl)cc1` [Example 71, 4-(N-(3-Chloro-4-fluorobenzyl)-N-(3-chloro-5-(trifluoromethyl)pyridin-2-yl)sulfamoyl)benzoic acid] registered an IC50 below 1000 nM.

`COc1cc(C(=O)O)ccc1S(=O)(=O)N(Cc1ccccc1)c1ncc(C(F)(F)F)cc1Cl` [Example 146, 4-(N-Benzyl-N-(3-chloro-5-(trifluoromethyl)pyridin-2-yl)sulfamoyl)-3-methoxybenzoic acid]: the IC50 was below 1000 nM. Turning to `Cc1ccc(CN(c2ncc(C(F)(F)F)cc2Cl)S(=O)(=O)c2ccc(C(=O)O)cc2)cc1` [Example 27, 4-(N-(3-Chloro-5-(trifluoromethyl)pyridin-2-yl)-N-(4-methylbenzyl)sulfamoyl)benzoic acid], the IC50 is below 1000 nM.
